The values below come from publication PMC9399028 (European Journal of Nuclear Medicine and Molecular Imaging, 2022).

One data set deals with T1, Human recombinant MAO-B (Homo sapiens, UniProt P27338).
T1 construct: purchased Sigma M7441
T1 sequence (P27338 1-520): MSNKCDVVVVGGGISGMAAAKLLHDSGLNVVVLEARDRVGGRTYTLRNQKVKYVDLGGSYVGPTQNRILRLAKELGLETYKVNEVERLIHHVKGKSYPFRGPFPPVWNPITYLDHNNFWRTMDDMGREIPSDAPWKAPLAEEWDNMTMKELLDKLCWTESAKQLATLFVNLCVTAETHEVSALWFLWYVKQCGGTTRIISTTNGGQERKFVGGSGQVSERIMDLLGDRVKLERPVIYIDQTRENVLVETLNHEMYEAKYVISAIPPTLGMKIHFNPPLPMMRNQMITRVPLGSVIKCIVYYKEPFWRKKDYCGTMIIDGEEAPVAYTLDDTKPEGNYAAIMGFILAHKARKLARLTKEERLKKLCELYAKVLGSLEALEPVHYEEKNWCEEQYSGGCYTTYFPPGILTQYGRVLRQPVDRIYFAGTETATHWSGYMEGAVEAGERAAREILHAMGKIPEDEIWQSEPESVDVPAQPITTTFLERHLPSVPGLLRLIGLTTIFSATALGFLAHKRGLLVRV
The data set is described as follows: Saturation binding of radioligand to MAO-B microsomes. On the procedure: (§1) The dissociation constant (Kd) was determined by saturation binding, in which the total and non-specific binding of the radioligand was measured at various concentrations. Human recombinant MAO-A, MAO-B, and control microsomes were acquired from Sigma (M7316, M7441, and M7566, respectively). All microsome preparations were at a concentration of 5 mg protein/mL. The reaction mixture (250 μL) contained protein target and ^18F-radioligand, serially diluted in PBS, pH 7.4; assays were performed in PBS (0.01% bovine serum albumin [BSA]) in 96-well polypropylene microplates. […] . Filters were assayed for radioactivity in a Wizard 2480 automatic gamma-counter (Perkin Elmer).

A further data set addresses isolated human PHF (Homo sapiens, UniProt P10636). The data set can be described thus: Saturation binding of radioligand to isolated PHF. The protocol: Purified, soluble PHF was isolated from AD brain tissue using a protocol modified from the procedure described by Jicha et al.. Briefly, homogenized AD cortex underwent high pressure batch–gas expansion using a Parr Cell disruption bomb and centrifuged at […]. […] Bound PHF was eluted with two column volumes of 3M potassium thiocyanate. Isolated PHF was analyzed in a tau MC-1 ELISA and a tau AT8 ELISA, which recognizes tau phosphorylated at both Ser 202 and Thr 205 [3].
as §1

For a further data set, the target named is T2, Human recombinant MAO-A (Homo sapiens, UniProt P21397).
T2 construct: purchased Sigma M7316
T2 sequence (P21397 1-527): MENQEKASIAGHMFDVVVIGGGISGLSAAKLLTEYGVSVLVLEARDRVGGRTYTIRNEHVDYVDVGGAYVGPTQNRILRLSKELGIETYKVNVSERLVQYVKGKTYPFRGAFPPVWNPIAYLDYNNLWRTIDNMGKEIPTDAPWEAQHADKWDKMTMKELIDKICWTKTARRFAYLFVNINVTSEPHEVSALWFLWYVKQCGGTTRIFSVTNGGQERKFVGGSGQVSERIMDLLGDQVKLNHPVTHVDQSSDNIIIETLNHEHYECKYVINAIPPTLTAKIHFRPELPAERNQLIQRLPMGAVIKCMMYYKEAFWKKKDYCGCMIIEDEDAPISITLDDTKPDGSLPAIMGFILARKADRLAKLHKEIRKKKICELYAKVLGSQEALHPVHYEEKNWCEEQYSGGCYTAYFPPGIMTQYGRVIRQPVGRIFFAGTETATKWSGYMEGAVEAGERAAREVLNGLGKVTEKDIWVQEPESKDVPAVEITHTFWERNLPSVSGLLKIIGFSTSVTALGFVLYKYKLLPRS
The data set is described as follows: Saturation binding of radioligand to MAO-A microsomes. On the procedure: as §1

Data set [1] has as its system [^18F]flortaucipir binding to normal human brain (temporal cortex sections). The data set is described as follows: [^18F]flortaucipir autoradiography competition binding assay with MAO-A and MAO-B inhibitors. The note with it: for IC50: normal (tau NFT negative) human temporal cortex sections, 1.4 nM [^18F]flortaucipir, mild PBS wash, read-out: IC50, inhibition of [^18F]flortaucipir binding (autoradiography). The protocol:
After 60-min incubation at room temperature, PBS washes (4 × 2 min) were used to remove any unbound ligand. […] Signal intensity (counts/pixel) on each section was measured using Multi Gauge V3.0 Imaging software. Total binding was evaluated by nonlinear regression using GraphPad Prism v8 to determine IC50 values.

Data set [2] concerns frozen human brain slices from AD donors (PHF tau-rich) and non-AD control donors. The data set can be described thus: [^18F]flortaucipir autoradiography, stringent vs mild wash conditions. In kind it is binding. On the procedure:
Autoradiography was performed on frozen human brain slices from AD donors (N = 3, PHF tau-rich as determined by AT8 immunohistochemistry) and age-matched non-AD control donors (N = 6, devoid of tau NFTs and beta-amyloid neuritic plaques as determined by immunohistochemistry). Brains slices were obtained from the National Disease Research Interchange (Philadelphia, PA).

For the next data set, the target named is T3, MAO-A (Rattus norvegicus, UniProt P21396).
T3 construct: Male wild-type Sprague-Dawley rats; from tissue; host or cells: brain of living wild-type Sprague-Dawley rats
T3 sequence (P21396 1-526): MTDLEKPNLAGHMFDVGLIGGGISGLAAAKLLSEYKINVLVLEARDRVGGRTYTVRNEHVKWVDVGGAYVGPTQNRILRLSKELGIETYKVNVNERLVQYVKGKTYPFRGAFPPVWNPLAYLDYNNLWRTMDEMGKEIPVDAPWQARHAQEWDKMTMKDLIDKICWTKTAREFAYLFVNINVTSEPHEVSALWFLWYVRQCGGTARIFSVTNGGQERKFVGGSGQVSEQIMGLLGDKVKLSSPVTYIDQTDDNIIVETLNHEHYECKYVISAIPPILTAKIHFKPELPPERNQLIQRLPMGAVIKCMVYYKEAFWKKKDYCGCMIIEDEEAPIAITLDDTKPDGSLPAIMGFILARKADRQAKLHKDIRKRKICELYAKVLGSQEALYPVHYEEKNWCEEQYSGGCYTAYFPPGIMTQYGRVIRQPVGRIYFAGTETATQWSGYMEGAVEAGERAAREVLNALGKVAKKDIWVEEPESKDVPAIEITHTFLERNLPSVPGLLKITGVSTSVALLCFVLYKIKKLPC
The data set can be described thus: In vivo PET imaging in rats with pargyline pre-treatment. The note with it: for peak brain activity: at 2 min. The protocol:
All procedures in this study followed the guidelines of the Institutional Animal Care and Use Committee of the University of the Sciences, Philadelphia, PA. A Siemens Inveon Multimodality Scanner was used for micro-PET/computed tomography (CT) imaging. Male wild-type Sprague-Dawley rats (128 ± 58 g) were anesthetized with 3% isoflurane with oxygen. Rats were administered [^18F]fluoroethyl-harmol or [^18F]flortaucipir via tail vein injection (7.4-14.8MBq [200–400 μCi] in a total volume of 200 μL). For blocking studies, rats were pre-treated with pargyline (Sigma-Aldrich, 50 mg/kg i.p.) 30 min prior to scans; control rats were pre-treated with 0.9% saline injection (Hospira, i.p.). A short high-resolution CT scan was first conducted for anatomical registration, followed by a 120-min dynamic PET scan. PET images were generated for each minute of the acquisition time. Uptake of the tracers was determined by visually drawing regions of interest based on the fused PET/CT images, and corresponding activity values were determined using Inveon Research Workplace software. All values are represented as % injected dose per gram (ID/g). A total of 6 rats were studied (3 control, 3 pre-treated) for [^18F]fluoroethyl-harmol and 8 rats for [^18F]flortaucipir (4 control, 4 pre-treated).

Data set [3] concerns the target T4, MAO-B microsomes (Homo sapiens, UniProt P27338).
T4 sequence (P27338 1-520): T1 sequence (P27338 1-520)
The data set is described as follows: Competition binding, displacement of safinamide from MAO-B microsomes (LC-MS). On the set-up: purchased Sigma M7441. The protocol: IC50 values for each compound were determined by competition binding. […] IC50 values were determined by nonlinear regression analysis using GraphPad Prism.

Data set [4] has as its target T4, MAO-B microsomes. The data set can be described thus: LC-MS direct saturation binding to MAO-B microsomes.
Where [5] appears, read: NSB defined as binding to control microsomes.
Where [6] appears, read: NSB defined with 10 μM deprenyl.

“Also recorded” adds a separate entry of the source. Like-named read-outs stand apart in the source and are kept apart here. Some results are limits rather than exact numbers.

isolated human PHF, sequence (P10636 623-695 limits assumed): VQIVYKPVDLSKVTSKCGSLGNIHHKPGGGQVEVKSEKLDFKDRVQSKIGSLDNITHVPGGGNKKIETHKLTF

Take `CNc1ccc(-c2ccc3cc(OC[C@H](O)CF)ccc3n2)cn1` [[^18F]THK5351]: the equilibrium dissociation constant (Kd) on Human recombinant MAO-B (setting [5]) is 37 ± 1.8 nM; on Human recombinant MAO-B (NSB defined with 1 μM THK5351) it was 40 ± 0.7 nM; on Human recombinant MAO-B (setting [6]), 39 ± 1.1 nM.

As to `CNc1ccc(-c2ccc3cc(OC[C@H](O)C[18F])ccc3n2)cn1` [[^18F]THK5351], the Bmax is on record as 49 ± 6.3 pmol ligand/mg total protein at Human recombinant MAO-B (setting [5]), 54 ± 3.4 pmol ligand/mg total protein on Human recombinant MAO-B (NSB defined with 1 μM THK5351) and 51 ± 5.5 pmol ligand/mg total protein on Human recombinant MAO-B (setting [6]).

Take `Fc1ccc(-c2ccc3c(c2)[nH]c2ccncc23)cn1` [[^18F]flortaucipir]: the values for the Kd at isolated human PHF and on Human recombinant MAO-A were 0.57 nM and 2 nM, respectively.

As to `[18F]c1ccc(-c2ccc3c(c2)[nH]c2ccncc23)cn1` [[^18F]flortaucipir], the “fraction of [^18F]flortaucipir bound to normal brain sections that was displaced” value in data set [1] (mild wash conditions, remainder non-specific and non-saturable) is “approximately 50%”. Besides, the “saturability of autoradiography signal on AD tissue” value in data set [2] is recorded as “saturable”. The “saturability of off-target binding, mild wash” value in data set [2] (mild wash, AD and control tissue, 1 μM flortaucipir) is “only partially saturable”. Also, the “[^18F]flortaucipir binding on tissue, mild wash” value in data set [2] (mild washing (PBS), frontal cortex and striatum) is “observed on both AD and control tissues”. Also, the “[^18F]flortaucipir binding on tissue, stringent wash” value in data set [2] (stringent washing (30% and 70% EtOH), frontal cortex and striatum) is recorded as “observed only on tau NFT-rich AD tissue, not on control tissue”. Besides, the “effect of pargyline pre-treatment on brain uptake and clearance” value on MAO-A (rats, control vs pargyline 50 mg/kg) was “nearly identical brain uptake with rapid clearance in both the control and pargyline groups”. Moreover, the “specific binding to MAO-B (radioligand saturation)” value at Human recombinant MAO-B (MAO-B microsomes vs control microsomes or 10 μM deprenyl) is given as “no specific binding; also recorded: no significant binding”.

In the case of `Cc1nccc2c1[nH]c1cc(OCC[18F])ccc12` [[^18F]fluoroethyl-harmol], the “brain activity at 110 min” value on MAO-A (control rats, 110 min) was determined as 2.1 %ID/g. In addition, the peak brain activity is on record as 2.3 %ID/g at MAO-A (control rats, i.v.) and 2.4 %ID/g on MAO-A (pargyline 50 mg/kg i.p. pre-treated rats). In addition, the “brain activity after washout” value at MAO-A (pargyline 50 mg/kg i.p. pre-treated rats, by 20 min) turned out to be 1.0 %ID/g.

As for `Fc1ccc(-c2ccc3c(c2)[nH]c2ccncc23)cn1` [flortaucipir], the half-maximal inhibitory concentration (IC50) was 270 nM in data set [1] and 1300 nM at MAO-B microsomes [3]. The “specific binding to MAO-B (LC-MS saturation)” value on MAO-B microsomes [4] (higher flortaucipir concentrations) was “no specific binding was observed”.

For the compound `Cc1nccc2c1[nH]c1cc(OCCF)ccc12` [fluoroethyl-harmol], the IC50 in data set [1] was 780 nM; at MAO-B microsomes [3] (read-out: IC50, displacement of safinamide, 30 nM safinamide, 10 μg MAO-B microsomes) it was above 10000 nM.

As to `C[C@H](NCc1ccc(OCc2cccc(F)c2)cc1)C(N)=O` [safinamide], in data set [1], the concentration for half-maximal inhibition (IC50) is at least 10000 nM. Also, the Bmax at MAO-B microsomes [4] (LC-MS, NSB = control microsome) is given as 446 pmol ligand/mg total protein.

By Kd is commonly meant the constant that tells how readily two partners part at equilibrium. One may read the IC50 as the midpoint of a concentration-inhibition curve.
